# In US20240391862A1, “(1,4,5-TRISUBSTITUTED-1H-PYRAZOL-3-YL)OXY-2-ALKOXY ALKYL ACIDS AND THEIR DERIVATIVES, THEIR SALTS AND THEIR USE AS HERBICIDAL AGENTS” (Bayer AKtiengesellschaft, priority 2021, published 2024):
# Tests used:
# [1] = system: ORYSA; test: Post-emergence herbicidal effect and crop plant compatibility, greenhouse pot test; type: in vivo, Oryza sativa; conditions: for Post-emergence effect at 320 g/ha against ORYSA in %: one-leaf stage, rated visually after about 3 weeks vs untreated controls; for Post-emergence effect against ORYSA: 80 g/ha, visual rating about 3 weeks after treatment, crop plant
# Outline: (§1)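 Sandy loam pots, greenhouse. One-leaf stage (2–3 wk after sowing) foliar spray; WP/EC in water + 0.5% additive, 600 l/ha; 20–320 g/ha. Visual score ~3 wk, 0–100% vs untreated.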
# [2] = system: GLXMA; test: Pre-emergence herbicidal effect and crop plant compatibility, greenhouse pot test; type: in vivo, Glycine max; conditions: scored visually after about 3 weeks vs untreated controls
# Source text: (§2) Seeds of monocotyledonous and dicotyledonous weed plants and crop plants are placed in plastic or organic planting pots and covered with soil. The compounds of the invention, formulated in the form of wettable powders (WP) or as emulsion concentrates (EC), are then applied to the surface of the covering soil as aqueous suspension or emulsion with addition of 0.5% additive at a water application rate equivalent to 600 l/ha. After the treatment, the pots are placed in a greenhouse and kept under good growth conditions for the trial plants. After about 3 weeks, the effect of the preparations is scored visually in comparison with untreated controls as percentages. For example, 100% activity=the plants have died, 0% activity=like control plants.
# (§3) Tables 1a to 19c below show the effects/crop compatibilities of selected compounds of the general formula (I) on various harmful plants at an application rate corresponding to 20 to 320 g/ha, which were obtained by the trial procedure specified above.
# (§4) • ALOMY: Alopecurus myosuroides SETVI: Setaria viridis • AVEFA: Avena fatua POLCO: Fallopia convolvulus • AMARE: Amaranthus retroflexus ECHCG: Echinochloa crus-galli • LOLRJ: Lolium rigidum STEME: Stellaria media • VERPE: Veronica persica MATIN: Tripleurospermum inodorum • DIGSA: Digitaria sanguinalis ABUTH: Abutylon threophrasti • TRZAS: Triticum aestivum VIOTR: Viola tricolor • BRSNW: Brassica napus ZEAMX: Zea mays • PHBPU: Ipomoea purpurea GLXMA: Glycine max • ORYSA: Oryza sativa HORMU: Hordeum murinum
# [3] = system: ZEAMX; test: Post-emergence herbicidal effect and crop plant compatibility, greenhouse pot test; type: in vivo, Zea mays; conditions: one-leaf stage, rated visually after about 3 weeks vs untreated controls; for plant injury at 80 g/ha: Zea mays, 504 h, read-out: Post-emergence effect at 80 g/ha against ZEAMX in %
# Outline: as §1
# [4] = system: ORYSA; test: Pre-emergence herbicidal effect and crop plant compatibility, greenhouse pot test; type: in vivo, Oryza sativa; conditions: scored visually after about 3 weeks vs untreated controls
# Source text: as §2, §3, §4
# [5] = system: BRSNW; test: as above; type: in vivo, Brassica napus; conditions: scored visually after about 3 weeks vs untreated controls
# Source text: as §2, §3, §4
# [6] = system: SETVI; test: Pre-emergence herbicidal effect, greenhouse pot test; type: in vivo, Setaria viridis; conditions: Setaria viridis, 504 h, 320 g/ha, scored visually after about 3 weeks vs untreated controls, read-out: Pre-emergence effect at 320 g/ha against SETVI in %
# Source text: as §2, §3, §4
# [7] = system: SETVI; test: Post-emergence herbicidal effect, greenhouse pot test; type: in vivo, Setaria viridis; conditions: Setaria viridis, 504 h, 320 g/ha, read-out: Post-emergence effect against SETVI in %
# Outline: (§5)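 Visual % activity scored roughly 3 weeks post-spray against untreated plants, where 100% means death and 0% equals control. Plants were treated at the one-leaf stage, 2 to 3 weeks after sowing in sandy loam, at 20 to 320 g/ha.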
# [8] = system: TRZAS; test: Pre-emergence herbicidal effect and crop plant compatibility, greenhouse pot test; type: in vivo, Triticum aestivum; conditions: scored visually after about 3 weeks vs untreated controls
# Source text: as §2, §3, §4
# [9] = system: ECHCG; test: Post-emergence herbicidal effect, greenhouse pot test; type: in vivo, Echinochloa crus-galli; conditions: Echinochloa crus-galli, 504 h, 320 g/ha, read-out: Post-emergence effect against ECHCG in %
# Outline: as §5
# [10] = system: VERPE; test: as above; type: in vivo, Veronica persica; conditions: 320 g/ha; for pest or weed control at 320 g/ha: Veronica persica, 504 h, read-out: Post-emergence effect against VERPE in %
# Outline: as §5
# [11] = system: AMARE; test: Pre-emergence herbicidal effect, greenhouse pot test; type: in vivo, Amaranthus retroflexus; conditions: Amaranthus retroflexus, 504 h, 320 g/ha, scored visually after about 3 weeks vs untreated controls, read-out: Pre-emergence effect at 320 g/ha against AMARE in %
# Source text: as §2, §3, §4
# [12] = system: ZEAMX; test: Pre-emergence herbicidal effect and crop plant compatibility, greenhouse pot test; type: in vivo, Zea mays; conditions: scored visually after about 3 weeks vs untreated controls
# Source text: as §2, §3, §4
# [13] = system: MATIN; test: Post-emergence herbicidal effect, greenhouse pot test; type: in vivo, Tripleurospermum inodorum; conditions: Tripleurospermum inodorum, 504 h, 320 g/ha, read-out: Post-emergence effect against MATIN in %
# Outline: as §5
# [14] = system: ALOMY; test: as above; type: in vivo, Alopecurus myosuroides; conditions: Alopecurus myosuroides, 504 h, 320 g/ha, visual rating about 3 weeks after treatment, read-out: Post-emergence effect against ALOMY
# Outline: as §5
# [15] = system: TRZAS; test: Post-emergence herbicidal effect and crop plant compatibility, greenhouse pot test; type: in vivo, Triticum aestivum; conditions: for Post-emergence effect against TRZAS: visual rating about 3 weeks after treatment, crop plant; for Post-emergence effect at 20 g/ha against TRZAS in %: one-leaf stage, rated visually after about 3 weeks vs untreated controls
# Outline: as §1
# [16] = system: GLXMA; test: as above; type: in vivo, Glycine max; conditions: visual rating about 3 weeks after treatment, crop plant
# Source text: as §4
# Seeds of monocotyledonous and dicotyledonous weeds and crop plants are placed in sandy loam in plastic or organic planting pots, covered with soil and cultivated in a greenhouse under controlled growth conditions. 2 to 3 weeks after sowing, the trial plants are treated at the one-leaf stage. The compounds of the invention, formulated in the form of wettable powders (WP) or as emulsion concentrates (EC), are then sprayed onto the green parts of the plants as aqueous suspension or emulsion with addition of 0.5% additive at a water application rate of 600 l/ha (converted). After the test plants have been kept in the greenhouse under optimum growth conditions for about 3 weeks, the activity of the preparations is rated visually in comparison to untreated controls. For example, 100% activity=the plants have died, 0% activity=like control plants.
# Tables 20a to 38c below show the effects/crop compatibilities of selected compounds of the general formula (I) on various harmful plants at an application rate corresponding to 20 to 320 g/ha, which were obtained by the trial procedure specified above.
# [17] = system: AVEFA; test: Post-emergence herbicidal effect, greenhouse pot test; type: in vivo, Avena fatua; conditions: 320 g/ha, visual rating about 3 weeks after treatment
# Outline: as §5
# [18] = system: PHBPU; test: as above; type: in vivo, Ipomoea purpurea; conditions: 320 g/ha
# Outline: as §5
# [19] = system: POLCO; test: as above; type: in vivo, Fallopia convolvulus; conditions: 320 g/ha
# Outline: as §5
# [20] = system: AMARE; test: as above; type: in vivo, Amaranthus retroflexus; conditions: 320 g/ha, visual rating about 3 weeks after treatment
# Outline: as §5
# [21] = system: ABUTH; test: as above; type: in vivo, Abutilon theophrasti; conditions: visual rating about 3 weeks after treatment
# Outline: as §5
compound,measurement,setting,value
CCOC(=O)C(OCC)Oc1nn(-c2ncccc2F)c(-c2ccc(Cl)cc2)c1Br (stereo not shown) [Example I-02],Post-emergence effect at 320 g/ha against ORYSA in %,[1],10%
same,Pre-emergence effect at 80 g/ha against GLXMA in %,[2],0%
same,Pre-emergence effect at 320 g/ha against GLXMA in %,[2],0%
same,plant injury at 80 g/ha,[3],10%
same,Pre-emergence effect at 80 g/ha against ORYSA in %,[4],0%
same,Pre-emergence effect at 320 g/ha against ORYSA in %,[4],0%
same,Pre-emergence effect at 80 g/ha against BRSNW in %,[5],0%
same,Pre-emergence effect at 320 g/ha against BRSNW in %,[5],0%
same,pest or weed control at 320 g/ha,[6],80%
COC(=O)C(OC)Oc1nn(-c2ncccc2F)c(-c2ccc(Cl)cc2)c1Br (stereo not shown) [Example I-03],pest or weed control at 320 g/ha,[7],80%
same,Pre-emergence effect at 320 g/ha against TRZAS in %,[8],0%
same,Post-emergence effect at 320 g/ha against ORYSA in %,[1],10%
same,Pre-emergence effect at 80 g/ha against GLXMA in %,[2],20%
same,plant injury at 80 g/ha,[3],20%
same,pest or weed control at 320 g/ha,[9],80%
same,pest or weed control at 320 g/ha,[10],90%
same,pest or weed control at 320 g/ha,[11],80%
same,Pre-emergence effect at 80 g/ha against ORYSA in %,[4],0%
same,Pre-emergence effect at 80 g/ha against BRSNW in %,[5],20%
same,Pre-emergence effect at 80 g/ha against ZEAMX in %,[12],20%
same,Pre-emergence effect at 320 g/ha against ZEAMX in %,[12],20%
CCOC(=O)C(OCC)Oc1nn(-c2ncccc2F)c(-c2ccc(F)cc2F)c1Br (stereo not shown) [Example I-08],pest or weed control at 320 g/ha,[7],80%
same,Pre-emergence effect at 80 g/ha against TRZAS in %,[8],0%
same,Pre-emergence effect at 320 g/ha against TRZAS in %,[8],0%
same,pest or weed control at 320 g/ha,[13],80%
same,Pre-emergence effect at 80 g/ha against GLXMA in %,[2],0%
same,pest or weed control at 320 g/ha,[9],80%
same,pest or weed control at 320 g/ha,[10],80%
same,pest or weed control at 320 g/ha,[14],90%
same,Pre-emergence effect at 80 g/ha against ORYSA in %,[4],0%
same,Pre-emergence effect at 320 g/ha against ORYSA in %,[4],0%
same,Pre-emergence effect at 80 g/ha against ZEAMX in %,[12],0%
same,Pre-emergence effect at 320 g/ha against ZEAMX in %,[12],10%
CCOC(=O)C(OCC)Oc1nn(-c2ccc(Cl)cc2F)c(-c2ccc(F)cc2F)c1Br (stereo not shown) [Example I-09],Post-emergence effect against TRZAS,[15]; 80 g/ha,0%
same,Post-emergence effect against TRZAS,[15]; 320 g/ha,0%
same,Pre-emergence effect at 80 g/ha against TRZAS in %,[8],0%
same,Pre-emergence effect at 320 g/ha against TRZAS in %,[8],20%
same,Post-emergence effect against ORYSA,[1],10%
same,Pre-emergence effect at 80 g/ha against GLXMA in %,[2],10%
same,Pre-emergence effect at 320 g/ha against GLXMA in %,[2],10%
same,Post-emergence effect at 80 g/ha against ZEAMX in %,[3],0%
same,Post-emergence effect at 320 g/ha against ZEAMX in %,[3],0%
same,Pre-emergence effect at 80 g/ha against BRSNW in %,[5],0%
same,Pre-emergence effect at 320 g/ha against BRSNW in %,[5],0%
same,Post-emergence effect against GLXMA,[16]; 80 g/ha,10%
same,Post-emergence effect against GLXMA,[16]; 320 g/ha,20%
same,Pre-emergence effect at 320 g/ha against ZEAMX in %,[12],10%
COC(=O)C(OC)Oc1nn(-c2ccc(Cl)cc2F)c(-c2ccc(F)cc2F)c1Br (stereo not shown) [Example I-11],Post-emergence effect against TRZAS,[15]; 80 g/ha,0%
same,Post-emergence effect against TRZAS,[15]; 320 g/ha,0%
same,Pre-emergence effect at 80 g/ha against TRZAS in %,[8],0%
same,Pre-emergence effect at 320 g/ha against TRZAS in %,[8],0%
same,Post-emergence effect against ORYSA,[1],0%
same,Pre-emergence effect at 80 g/ha against GLXMA in %,[2],0%
same,Pre-emergence effect at 320 g/ha against GLXMA in %,[2],0%
same,Post-emergence effect at 80 g/ha against ZEAMX in %,[3],0%
same,Post-emergence effect at 320 g/ha against ZEAMX in %,[3],0%
same,Post-emergence effect against GLXMA,[16]; 80 g/ha,20%
same,Pre-emergence effect at 80 g/ha against ZEAMX in %,[12],0%
COC(=O)C(OC)Oc1nn(-c2ccccc2F)c(-c2ccc(F)nc2)c1C(F)(F)C(F)(F)F (stereo not shown) [Example I-60],Post-emergence effect at 20 g/ha against TRZAS in %,[15],0%
same,Post-emergence effect against TRZAS,[15]; 80 g/ha,0%
same,Post-emergence effect against AVEFA,[17],80%
same,Post-emergence effect against PHBPU in %,[18],90%
same,Post-emergence effect at 20 g/ha against ZEAMX in %,[3],0%
same,Post-emergence effect at 80 g/ha against ZEAMX in %,[3],0%
same,Post-emergence effect against VERPE in %,[10],80%
same,Post-emergence effect against POLCO in %,[19],90%
same,Post-emergence effect against GLXMA,[16]; 20 g/ha,10%
COC(=O)C(OC)Oc1nn(-c2cccc(C)c2F)c(-c2ccc(F)nc2)c1C1CC1 (stereo not shown) [Example I-93],Post-emergence effect at 20 g/ha against TRZAS in %,[15],0%
same,Post-emergence effect against TRZAS,[15]; 80 g/ha,10%
same,Post-emergence effect against TRZAS,[15]; 320 g/ha,20%
same,Post-emergence effect against AMARE,[20],90%
same,Post-emergence effect against PHBPU in %,[18],80%
same,Post-emergence effect at 20 g/ha against ZEAMX in %,[3],10%
same,Post-emergence effect against GLXMA,[16]; 20 g/ha,20%
same,Post-emergence effect against ABUTH,[21]; 80 g/ha,80%
same,Post-emergence effect against ABUTH,[21]; 320 g/ha,90%
